Laboratory results as given in patent publication US20050154042A1, “N-alkyl pyrroles as HMG-CoA reductase inhibitors” (priority 2003, published 2005).

SMILES | melting point [°C]
CC(C)n1c(CC[C@@H](O)C[C@@H](O)CC(=O)[O-])c(-c2ccc(F)cc2)c(-c2ccccc2)c1C(=O)Nc1cccc(S(N)(=O)=O)c1.[Na+] [Example 125, (3R,5R)-7-[3-(4-Fluoro-phenyl)-1-isopropyl-4-phenyl-5-(3-sulfamoyl-phenylcarbamoyl)-1H-pyrrol-2-yl]-3,5-dihydroxy-heptanoic Acid Sodium Salt] | 227 to 229
CC(C)n1c(/C=C/[C@@H](O)C[C@@H](O)CC(=O)[O-])c(-c2ccc(F)cc2)c(-c2ccccc2)c1C(=O)Nc1cccc(S(N)(=O)=O)c1.[Na+] [Example 126, (3R,5S)-7-[3-(4-Fluoro-phenyl)-1-isopropyl-4-phenyl-5-(3-sulfamoyl-phenylcarbamoyl)-1H-pyrrol-2-yl]-3,5-dihydroxy-hept-6-enoic Acid Sodium Salt] | 225 to 227
CC(C)n1c(CC[C@@H](O)C[C@@H](O)CC(=O)[O-])c(-c2ccc(F)cc2)c(-c2ccc(F)cc2)c1C(=O)Nc1ccc(OCc2ccccc2)cc1.[Na+] [Example 127] | 215 to 217
CC(C)n1c(/C=C/[C@@H](O)C[C@@H](O)CC(=O)[O-])c(-c2ccc(F)cc2)c(-c2ccc(F)cc2)c1C(=O)Nc1ccccc1OCc1ccccc1.[Na+] [Example 131, (3R,5S)-7-[5-(2-Benzyloxy-phenylcarbamoyl)-3,4-bis-(4-fluoro-phenyl)-1-isopropyl-1H-pyrrol-2-yl]-3,5-dihydroxy-hept-6-enoic Acid Sodium Salt] | 228 to 229
CC(C)n1c(/C=C/[C@@H](O)C[C@@H](O)CC(=O)[O-])c(-c2ccc(F)cc2)c(-c2ccc(F)cc2)c1C(=O)Nc1cccc(OCc2ccccc2)c1.[Na+] [Example 132, (3R,5 S)-7-[5-(3-Benzyloxy-phenylcarbamoyl)-3,4-bis-(4-fluoro-phenyl)-1-isopropyl-1H-pyrrol-2-yl]-3,5-dihydroxy-hept-6-enoic Acid Sodium Salt] | 225 to 227
CC(C)n1c(CC[C@@H](O)C[C@@H](O)CC(=O)[O-])c(-c2ccc(F)cc2)c(-c2ccc(F)cc2)c1C(=O)Nc1ccc(O)cc1.[Na+] [Example 133, (3R,5R)-7-[3,4-Bis-(4-fluoro-phenyl)-5-(4-hydroxy-phenylcarbamoyl)-1-isopropyl-1H-pyrrol-2-yl]-3,5-dihydroxy-heptanoic Acid Sodium Salt] | 228 to 230
CC(C)n1c(CC[C@@H](O)C[C@@H](O)CC(=O)[O-])c(-c2ccc(F)cc2)c(-c2ccc(F)cc2)c1C(=O)Nc1ccccc1O.[Na+] [Example 134, (3R,5R)-7-[3,4-Bis-(4-fluoro-phenyl)-5-(2-hydroxy-phenylcarbamoyl)-1-isopropyl-1H-pyrrol-2-yl]-3,5-dihydroxy-heptanoic Acid Sodium Salt] | 222 to 223
CC(C)n1c(CC[C@@H](O)C[C@@H](O)CC(=O)[O-])c(-c2ccc(F)cc2)c(-c2ccc(F)cc2)c1C(=O)Nc1cccc(O)c1.[Na+] [Example 135, (3R,5R)-7-[3,4-Bis-(4-fluoro-phenyl)-5-(3-hydroxy-phenylcarbamoyl)-1-isopropyl-1H-pyrrol-2-yl]-3,5-dihydroxy-heptanoic Acid Sodium Salt] | 220 to 222
COc1cccc(NC(=O)c2c(-c3ccc(F)cc3)c(-c3ccc(F)cc3)c(CC[C@@H](O)C[C@@H](O)CC(=O)[O-])n2C(C)C)c1.[Na+] [Example 136, (3R,5R)-7-[3,4-Bis-(4-fluoro-phenyl)-1-isopropyl-5-(3-methoxy-phenylcarbamoyl)-1H-pyrrol-2-yl]-3,5-dihydroxy-heptanoic Acid Sodium Salt] | 215 to 217
COc1cccc(NC(=O)c2c(-c3ccc(F)cc3)c(-c3ccc(F)cc3)c(/C=C/[C@@H](O)C[C@@H](O)CC(=O)[O-])n2C(C)C)c1.[Na+] [Example 137, (3R,5 S)-7-[3,4-Bis-(4-fluoro-phenyl)-1-isopropyl-5-(3-methoxy-phenylcarbamoyl)-1H-pyrrol-2-yl]-3,5-dihydroxy-hept-6-enoic Acid Sodium Salt] | 225 to 227
CC(C)n1c(CC[C@@H](O)C[C@@H](O)CC(=O)[O-])c(-c2ccc(F)cc2)c(-c2ccc(F)cc2)c1C(=O)Nc1cccc(Cl)c1.[Na+] [Example 138, (3R,5R)-7-[5-(3-Chloro-phenylcarbamoyl)-3,4-bis-(4-fluoro-phenyl)-1-isopropyl-1H-pyrrol-2-yl]-3,5-dihydroxy-heptanoic Acid Sodium Salt] | 191 to 194

Second part, the compound after the results:

melting point [°C] | SMILES
229 to 230 | CC(C)n1c(/C=C/[C@@H](O)C[C@@H](O)CC(=O)[O-])c(-c2ccc(F)cc2)c(-c2ccc(F)cc2)c1C(=O)Nc1cccc(Cl)c1.[Na+] [Example 139, (3R,5S)-7-[5-(3-Chloro-phenylcarbamoyl)-3,4-bis-(4-fluoro-phenyl)-1-isopropyl-1H-pyrrol-2-yl]-3,5-dihydroxy-hept-6-enoic Acid Sodium Salt]
175 to 177 | CCc1cccc(NC(=O)c2c(-c3ccc(F)cc3)c(-c3ccc(F)cc3)c(CC[C@@H](O)C[C@@H](O)CC(=O)[O-])n2C(C)C)c1.[Na+] [Example 140, (3R,5R)-7-[5-(3-Ethyl-phenylcarbamoyl)-3,4-bis-(4-fluoro-phenyl)-1-isopropyl-1H-pyrrol-2-yl]-3,5-dihydroxy-heptanoic Acid Sodium Salt]
229 to 230 | CCc1cccc(NC(=O)c2c(-c3ccc(F)cc3)c(-c3ccc(F)cc3)c(/C=C/[C@@H](O)C[C@@H](O)CC(=O)[O-])n2C(C)C)c1.[Na+] [Example 141, (3R,5S)-7-[5-(3-Ethyl-phenylcarbamoyl)-3,4-bis-(4-fluoro-phenyl)-1-isopropyl-1H-pyrrol-2-yl]-3,5-dihydroxy-hept-6-enoic Acid Sodium Salt]
197 to 199 | CC(C)n1c(CC[C@@H](O)C[C@@H](O)CC(=O)[O-])c(-c2ccc(F)cc2)c(-c2ccccc2)c1C(=O)Nc1cccc(C#N)c1.[Na+] [Example 142, (3R,5R)-7-[5-(3-Cyano-phenylcarbamoyl)-3-(4-fluoro-phenyl)-1-isopropyl-4-phenyl-1H-pyrrol-2-yl]-3,5-dihydroxy-heptanoic Acid Sodium Salt]
210 to 212 | CC(C)n1c(/C=C/[C@@H](O)C[C@@H](O)CC(=O)[O-])c(-c2ccc(F)cc2)c(-c2ccccc2)c1C(=O)Nc1cccc(C#N)c1.[Na+] [Example 143, (3R,5S)-7-[5-(3-Cyano-phenylcarbamoyl)-3-(4-fluoro-phenyl)-1-isopropyl-4-phenyl-1H-pyrrol-2-yl]-3,5-dihydroxy-hept-6-enoic Acid Sodium Salt]
178 to 180 | CC(C)n1c(CC[C@@H](O)C[C@@H](O)CC(=O)[O-])c(-c2ccc(F)cc2)c(-c2ccccc2)c1C(=O)NCc1ccc(C#N)cc1.[Na+] [Example 144, (3R,5R)-7-[5-(4-Cyano-benzylcarbamoyl)-3-(4-fluoro-phenyl)-1-isopropyl-4-phenyl-1H-pyrrol-2-yl]-3,5-dihydroxy-heptanoic Acid Sodium Salt]
193 to 195 | CC(C)n1c(/C=C/[C@@H](O)C[C@@H](O)CC(=O)[O-])c(-c2ccc(F)cc2)c(-c2ccccc2)c1C(=O)NCc1ccc(C#N)cc1.[Na+] [Example 145, (3R,5S)-7-[5-(4-Cyano-benzylcarbamoyl)-3-(4-fluoro-phenyl)-1-isopropyl-4-phenyl-1H-pyrrol-2-yl]-3,5-dihydroxy-hept-6-enoic Acid Sodium Salt]
180 to 182 | CC(C)n1c(CC[C@@H](O)C[C@@H](O)CC(=O)[O-])c(-c2ccc(F)cc2)c(-c2ccccc2)c1C(=O)NCc1cccc(C#N)c1.[Na+] [Example 146, (3R,5R)-7-[5-(3-Cyano-benzylcarbamoyl)-3-(4-fluoro-phenyl)-1-isopropyl-4-phenyl-1H-pyrrol-2-yl]-3,5-dihydroxy-heptanoic Acid Sodium Salt]
208 to 210 | CC(C)n1c(/C=C/[C@@H](O)C[C@@H](O)CC(=O)[O-])c(-c2ccc(F)cc2)c(-c2ccccc2)c1C(=O)NCc1cccc(C#N)c1.[Na+] [Example 147, (3R,5S)-7-[5-(3-Cyano-benzylcarbamoyl)-3-(4-fluoro-phenyl)-1-isopropyl-4-phenyl-1H-pyrrol-2-yl]-3,5-dihydroxy-hept-6-enoic Acid Sodium Salt]
199 to 201 | CC(C)OC(=O)c1ccc(CNC(=O)c2c(-c3ccccc3)c(-c3ccc(F)cc3)c(CC[C@@H](O)C[C@@H](O)CC(=O)[O-])n2C(C)C)cc1.[Na+] [Example 148, (3R,5R)-7-[3-(4-Fluoro-phenyl)-5-(4-isopropoxycarbonyl-benzylcarbamoyl)-1-isopropyl-4-phenyl-1H-pyrrol-2-yl]-3,5-dihydroxy-heptanoic Acid Sodium Salt]
222 to 224 | CC(C)OC(=O)c1ccc(CNC(=O)c2c(-c3ccccc3)c(-c3ccc(F)cc3)c(/C=C/[C@@H](O)C[C@@H](O)CC(=O)[O-])n2C(C)C)cc1.[Na+] [Example 149, (3R,5S)-7-[3-(4-Fluoro-phenyl)-5-(4-isopropoxycarbonyl-benzylcarbamoyl)-1-isopropyl-4-phenyl-1H-pyrrol-2-yl]-3,5-dihydroxy-hept-6-enoic Acid Sodium Salt]
171 to 174 | COC(=O)c1cccc(CNC(=O)c2c(-c3ccccc3)c(-c3ccc(F)cc3)c(/C=C/[C@@H](O)C[C@@H](O)CC(=O)[O-])n2C(C)C)c1.[Na+] [Example 151, (3R,5S)-7-[3-(4-Fluoro-phenyl)-1-isopropyl-5-(3-methoxycarbonyl-benzylcarbamoyl)-4-phenyl-1H-pyrrol-2-yl]-3,5-dihydroxy-hept-6-enoic Acid Sodium Salt]
227 to 229 | COc1ccc([C@H](C)NC(=O)c2c(-c3ccc(F)cc3)c(-c3ccc(F)cc3)c(CC[C@@H](O)C[C@@H](O)CC(=O)[O-])n2C(C)C)cc1.[Na+] [Example 152, (3R,5R)-7-{3,4-Bis-(4-fluoro-phenyl)-1-isopropyl-5-[(S)—I-(4-methoxy-phenyl)-ethylcarbamoyl]-1H-pyrrol-2-yl]-3,5-dihydroxy-heptanoic Acid Sodium Salt]
